Measurements: paper PMC3780409 (Methods in molecular biology (Clifton, N.J.), 2011)
“Also recorded” adds a separate entry of the source. Read-outs that look alike come from different tables or passages of the source.

Experiments:
[1] = test system: PAR1; conditions: guinea pig platelets; cited from earlier work
[2] = test system: Akt; conditions: established tumors treated for 5 days; cited from earlier work
[3] = test system: PAR1-MCF7/N55; conditions: cited from earlier work
[4] = test system: PAR1; conditions: guinea pigs, cited from earlier work
[5] = test system: PAR1; conditions: guinea pigs, intravenous administration; cited from earlier work
[6] = test system: PAR1; conditions: cited from earlier work
[7] = test system: MDA-MB-231; conditions: MDA-MB-231 (s.q.), 10 mg/kg (i.p. q2d) combination with docetaxel (10 mg/kg i.p. once weekly), p < 0.01; cited from earlier work
[8] = test system: OVCAR4; conditions: cited from earlier work
[9] = test system: GFP/MDA-MB-231; conditions: GFP/MDA-MB-231 (i.v.), 10 mg/kg (s.c. 5 days per week), single agent, p < 0.001; cited from earlier work
[10] = test system: PAR1-expressing breast cancer cells; conditions: through Akt; cited from earlier work
[11] = test system: SKOV3; conditions: SKOV3 (i.p.), 10 mg/kg (s.c. 5 days per week), single agent; cited from earlier work
[12] = test system: CXCR1/2; conditions: sepsis, SIRS, DIC, septic mice; cited from earlier work
[13] = test system: PAR4; conditions: guinea pigs, cited from earlier work
[14] = test system: PAR4; conditions: cited from earlier work
[15] = test system: PAR1; conditions: selectivity for PAR4; cited from earlier work
[16] = test system: PAR4; conditions: thrombin-preactivated human platelets; cited from earlier work
[17] = test system: PAR1; conditions: cited from earlier work; for Outcome: sepsis, SIRS, DIC, mice
[18] = test system: PAR1; conditions: rat aortic rings, vascular tissue preparations; cited from earlier work
[19] = test system: PAR4; conditions: cited from earlier work; remark: listed apart in the source
[20] = test system: PAR4; conditions: cited from earlier work; remark: listed apart in the source
[21] = test system: PAR4; conditions: cited from earlier work; remark: listed apart in the source
[22] = test system: PAR4; conditions: sepsis, SIRS, DIC, mice; cited from earlier work
[23] = test system: PAR1; conditions: at higher concentrations; cited from earlier work
[24] = test system: PAR4; conditions: mice, induced by AYPGKF plus epinephrine; cited from earlier work
[25] = test system: thromboxane, ADP, collagen, or GPIb/IX/V receptors; conditions: cited from earlier work
[26] = test system: PAR4; conditions: wire injury to the carotid artery of mice, fluorescent platelets; cited from earlier work
[27] = test system: PAR4; conditions: Inflammation/paw edema, carrageenan, mice; cited from earlier work
[28] = test system: human neutrophils; conditions: cited from earlier work
[29] = test system: PAR4; conditions: cited from earlier work; remark: listed apart in the source
[30] = test system: PAR4; conditions: PAR4 agonist in mouse knee joint; cited from earlier work
[31] = test system: breast MCF-7 cells and melanoma SK-Mel2 cells; conditions: inhibition of growth, cell line not specified (MCF-7 and SK-Mel2 tested); cited from earlier work
[32] = mouse, in vivo

C15H31CONH-KKSRALF-NH2 [Pepducin P1pal-7]
Outcome (platelet aggregation) [1]: Inhibition of guinea pigs platelet aggregation | phosphorylation of Akt [2]: significantly inhibited | Efficacy: tumor burden, reduction in tumor growth ([3]; PAR1-MCF7/N55 (s.q.), 10 mg/kg (s.c. q2d), single agent, p < 0.01): 62% | angiogenesis of breast cancers [3]: almost completely blocked | prolongation of the occlusion time ([4]; 0.3 mg/kg i.v., carotid injury model): approximately 50% | Outcome (arterial occlusion time) ([4]; intravenous, carotid artery FeCl3 injury model): prolonged the mean occlusion time; also recorded: Prolonged collagen-induced arterial occlusion time in guinea pigs | collagen-induced thrombocytopenia [5]: protected from collagen-induced thrombocytopenia | p38 MAPK activation ([6]; human platelets, collagen): blocked p38 MAPK activation | collagen-induced platelet aggregation ([6]; human platelets): inhibition of collagen-induced platelet aggregation | propagation of platelet–platelet thrombi ([6]; human whole blood, arterial flow conditions): significantly reduced | Efficacy: tumor burden, reduction in tumor growth [7]: 95% | Efficacy: diaphragm metastasis / peritoneal dissemination ([8]; OVCAR4 (i.p.), 3.6 mg/kg (i.p. q2d) combination with docetaxel (10 mg/kg i.p. once weekly), p < 0.005): Significant reduction in diaphragm metastasis (p < 0.005) | Efficacy: inhibition in ascites formation ([8]; OVCAR4 (i.p.), 10 mg/kg (i.p. q2d), single agent): 60% | ascites production in peritoneal ovarian cancer ([8]; cell line not given): significantly inhibited | angiogenesis of peritoneal ovarian cancers [8]: almost completely blocked | Efficacy: reduction in metastasis to lung [9]: 88% | viability of PAR1-expressing breast cancer cells [10]: inhibited the viability | Efficacy: ascites formation [11]: Ascites formation, complete inhibition of ascites

N-LCA-YSRVGRSVTD-NH2 [x1/2LCA-i1]
Outcome [12]: CXCR1/2 pepducins reduced organ damage, inhibited neutrophil migration, improved survival, and inhibited DIC

N-pal-ATGAPRLPST-NH2 [Pepducin P4pal-i1]
decrease of arterial occlusion ([13]; carotid injury model, single agent): approximately 50% | Outcome (arterial occlusion) ([13]; when combined with bivalirudin or P1pal-7): Inhibition of arterial occlusion in guinea pigs, when combined with bivalirudin or P1pal-7 | arterial thrombosis, combined with bivalirudin [13]: suppression of arterial thrombosis in guinea pigs to a much higher degree than bivalirudin alone | human platelet aggregation, combined with bivalirudin [14]: significant inhibition of human platelet aggregation | effect on PAR1-induced platelet aggregation [15]: without affecting | Outcome (epinephrine-induced Ca2+ flux and aggregation) [16]: inhibited; also recorded: Inhibition of epinephrine-induced Ca^2+ flux

N-pal-AVANRSKKSRALF-NH2 [Pepducin P1pal-13]
Outcome [17]: Temporally modulated survival, vascular leakage, and DIC | survival and DIC, treatment at late time points (agonist) ([17]; septic mice, by inhibiting leakage of endothelial cell tight junctions): improved survival and prevented DIC

N-pal-RCLSSSAVANRSKKSRALF-NH2 [Pepducin P1pal-19]
Outcome (agonist activity: Ca2+ signal, relaxation, prostaglandin E2 release) [18]: promote Ca^2+ signals, prostaglandin E2 release, and persistent relaxation of rat aortic rings in a concentration-dependent manner; also recorded: Promotes Ca^2+ signal, relaxation of rat aortic rings, and prostaglandin E2 release

N-pal-RLAHGYRRGS-NH2 [Rev-P4pal-10, reference compound]
Target (activity class) ([19]; reverse-sequence control): Inactive

N-pal-RSLSSSAVANRS-NH2 [Pepducin P1pal-12S]
Outcome [17]: Temporally modulated survival, vascular leakage, and DIC | survival and DIC, treatment at early time points ([17]; septic mice): improved survival and prevented DIC | survival and DIC, treatment at late time points (antagonist) ([17]; septic mice): but not late time points

N-pal-RTLFKAHMGQKHRAMR-NH2 [x1/2pal-i3]
Outcome [12]: CXCR1/2 pepducins reduced organ damage, inhibited neutrophil migration, improved survival, and inhibited DIC

N-pal-SGRRYGHALR-NH2 [Pepducin P4pal-10]
AYPGKF (PAR4 agonist)-induced aggregation [19]: completely blocked | human platelet aggregation to PAR4 agonists [19]: inhibited | Outcome (infarct size) ([20]; ischemia/reperfusion in rats): Reduced infarct size in ischemia/reperfusion in rats | reduction of myocardium infarct size ([20]; rats, intravenous bolus of 10 μg/kg, I/R injury model): approximately 20% | Outcome (tail bleeding time) ([21]; mice infused with pepducin): prolonged tail-bleeding times and unstable thrombi formation; also recorded: Prolonged tail bleeding time in mice | extension of bleeding time ([21]; mice, intravenous injection, 4 h point): approximately twofold | bleeding time ([21]; mice, intravenous injection, 24 h time point): returned to baseline | increase in bleeding time ([21]; mice, intravenous injection, after 5 min, maintained for 1 h): threefold to fivefold | prolongation of bleeding time ([21]; mice, subcutaneous injection of 3 mg/kg, 4 h after injection): sixfold | PD half-life ([21]; mice, subcutaneous injection of 3 mg/kg): approximately 14 h | Outcome [22]: protected against systemic inflammation and DIC; also recorded: Reduced organ damage and inflammatory mediators, inhibited neutrophil migration | block of PAR1 activation [23]: partially block | systemic thrombus formation [24]: protected against systemic thrombus formation | effect on ADP, thromboxane, and GPIb/IX/V receptors [25]: did not affect | Outcome (platelet accumulation) [26]: significant delay in accumulation; also recorded: Delayed platelet accumulation | Outcome [27]: Reduced edema and granulocyte recruitment induced by carrageenan | migration of human neutrophils to IP-10, SDF-1α, and S1P [28]: no effect | migration of human neutrophils to thrombin [28]: completely blocked | Outcome (thrombin generation) [29]: delayed the generation of thrombin | Outcome (joint inflammation) [30]: block the proinflammatory and pronociceptive effects of a PAR4 agonist in the mouse knee joint and alleviate acute joint inflammation; also recorded: Reduced agonist induced joint vascular conductance and edema

Pal-LTYAWHTSFK [SMO-i2-12]
IC50 [31]: 60 nM

pal-CGRRYGHALR [[^14C]-P4pal-10C]
increase of radioactivity in urine [32]: fivefold | radioactivity in urine [32]: detected | tissues in which radioactivity appeared ([32]; iv, 1.4 mg/kg): liver, kidney, lungs, and spleen, and lesser amounts to other tissues | tissues in which radioactivity appeared ([32]; iv, 14 mg/kg): kidney, lungs, liver, and spleen with lesser radioactivity appearing in the heart, blood, muscle, and fat, but not the brain | tissues in which radioactivity appeared ([32]; sc, 1 mg/kg): liver, kidney, lungs, and blood | tissues in which radioactivity appeared ([32]; sc, 10 mg/kg): fairly even distribution of radioactivity to the kidney, liver, spleen, blood, heart, and lungs, with lesser amounts to muscle and fat, but not to brain
